Experimental data from patent US20200199174A1, “NOVEL FLUORESCENT LABELING METHOD” (priority 2017, published 2020).

Columns and labels:
[1] = literature (Zheng et al. 2014); cited from earlier work
5D4 = test: Fluorescence change characteristics of fluorophore-DNP pair in presence and absence of 5D4; assay type: biochemical, mouse; conditions: recombinant 5D4 expressed/purified in E. coli
Method: The anti-DNP scFv was expressed and purified as a fusion protein of maltose-binding protein. Escherichia coli BL21 (DE3) was transformed with the pMalc5E vector (pMalc5E-scFv) into which the purification object scFv sequence was introduced, and was cultured overnight on an LB medium plate including 100 μg/mL of ampicillin. A single colony was picked up and cultured overnight in 5 mL of a liquid LB medium including 100 μg/mL of ampicillin, and 1 mL of the resultant culture liquid was transferred to 100 mL of LB medium including 100 μg/mL of ampicillin. Shake culturing was performed at 200 rpm and a temperature of 37° C. until an optical density at 600 nm of 0.8 was reached, and after shake culturing was performed for 30 minutes at 15° C., IPTG was added to give a final concentration of 0.5 mM, and shake culturing was continued overnight. The E. coli were recovered after culturing and were disrupted using a sonicator. […] An eluate was replaced with PBS, and yield was quantified by the Bradford method, after which the eluate was subjected to the measurements described below.
RNA was extracted from the hybridomas of the resultant four clones, and cDNA fragments of the variable regions of the light chains and heavy chains of monoclonal antibodies were obtained by reverse transcription. The cDNA fragments of the variable regions of the light chains and heavy chains were connected via a linker sequence by overlap PCR, and scFv constructs were constructed only from subclones (4E10 and 5D4) derived from wells 1E10 and 3B12, respectively. […] The nucleic acid sequence of the cDNA sequence coding for 5D4 was identified by sequencing (SEQ ID NO: 8), an amino acid sequence determined from the result thereof was analyzed using the IMGT database (http://www.imgt.org/), and a […] region was specified (FIG. 4).
This fluorescence characteristic is similar to that of Cy5 dye, which is widely used in fluorescence imaging in cells. In the presence of 5D4, the fluorescence intensity of 6SiR-DNP was increased by a factor of 98 relative to the fluorescence intensity thereof in the absence of 5D4 (FIG. 6B). When fluorescence quantum yield of 6SiR-DNP in a state in which 6SiR-DNP is bound to 5D4 was measured, the fluorescence quantum yield in the presence of an excess of 5D4 was 0.57. This value for the fluorescence quantum yield is large, and is equal to or greater than that of Cy5 (quantum yield=0.2-0.4) and Cy5.5 (quantum yield=0.24), which are also highly versatile fluorescent dyes in cell labeling experiments (Q. Zheng et al., Ultra-stable organic fluorophores for single-molecule research. Chem Soc Rev 43, 1044-1056 (2014).).

V94A mutant = test: Dissociation rate of alanine-scanning mutant and probe (competition experiments with DNP); assay type: binding, mouse
Source text: (§1) An amino acid mutation was introduced into an MBP-scFv protein coding region by circular PCR with pMalc5E-5D4 as a template, using a thermostable polymerase KOD Plus (TOYOBO) and forward and reverse primers including a codon modified to correspond to the desired amino acid mutation. The resultant linear PCR product was circularized using a Ligation Kit Version 2 (TAKARA), and an MBP-scFv mutant expression construct was obtained.
(§2) A flow channel in a stopped-flow apparatus (Bio-logic) was filled with a pretreatment liquid in which 1% w/v gelatin was dissolved in a phosphate buffer solution (pH 7.4) (PBS), and blocking was performed by leaving the apparatus at room temperature for at least 30 minutes, after which the flow channel was thoroughly washed with Milli-Q water. Using the apparatus, PBS in which MBP-5D4 or a variant thereof at a concentration of 100 nM or less and a probe at a concentration of 1 μM were dissolved, and PBS in which 100 μM DNP as a competitive substance was dissolved were mixed at a 1:1 ratio, and a fluorescence change was measured. At this time, the excitation/fluorescence wavelengths used were 510 nm/529-556 nm for the DCF probe and 650 nm/672-712 nm for the SiR probe, and measurement was performed under conditions of a temperature of 25-27C. […]

MBP-5D4 = test: Dissociation rate constant of anti-DNP scFv and probe (stopped-flow, competition with DNP); assay type: binding, mouse; conditions: 6DCF-DNP and 5D4
Method: A flow channel in a stopped-flow apparatus (Bio-logic) was filled with a pretreatment liquid in which 1% w/v gelatin was dissolved in a phosphate buffer solution (pH 7.4) (PBS), and blocking was performed by leaving the apparatus at room temperature for at least 30 minutes, after which the flow channel was thoroughly washed with Milli-Q water. Using the apparatus, PBS in which MBP-5D4 or a variant thereof at a concentration of 100 nM or less and a probe at a concentration of 1 μM were dissolved, and PBS in which 100 μM DNP as a competitive substance was dissolved were mixed at a 1:1 ratio, and a fluorescence change was measured. At this time, the excitation/fluorescence wavelengths used were 510 nm/529-556 nm for the DCF probe and 650 nm/672-712 nm for the SiR probe, and measurement was performed under conditions of a temperature of 25-27C. A dissociation rate constant koff was calculated by fitting the fluorescence intensity I(t) observed with respect to time t using formula (1) below (FIG. 13 and Table 1).
I(t)=c1·e^−k^off^t+c2·t+c3 Formula (1):
In the formula cn (n=1-3) is a constant.

5D4 (Y96F) = test: Dissociation rate constant of anti-DNP scFv mutant and probe (stopped-flow, competition with DNP); assay type: binding, mouse
Source text: as §1, §2

[2] = tested on: 5D4 fusion protein with TagRFP in HEK293T cells; test: Expression test of anti-DNP scFv in cultured cells, fluorescent labeling of cytoplasm; assay type: cell-based; conditions: 1 μM, 10 minutes room temperature, washed with HBS, HEK293T cells expressing TagRFP-5D4
Method: HEK293T cells and HeLa cells were cultured in Dulbecco's Modified Eagle's Medium (DMEM, Wako) including 10% fetal bovine serum (FBS, SIGMA) at a carbon dioxide concentration of 5% and a temperature of 37° C.
Gene transfer into HeLa cells was performed using lipofection. For the HeLa cells under culture in a 24-well dish, 25 μL of Opti-MEM I (GIBCO) to which 0.5 μg of a plasmid had been added was added to a mixed solution of 2 μL of Lipofectamine 2000 (Invitrogen) and 25 μL of Opti-MEM I and incubated for five minutes at room temperature. This mixture was added to 500 μL of a medium 90-100% confluent with HEK293T cells and HeLa cells, and culturing was performed at 37° C. at a carbon dioxide concentration of 5%. Cell concentration was diluted to 1/10 5 to 8 hours after transfection, and cells were re-seeded on a glass dish. Cells were subjected to various imaging experiments after 24 hours had passed since transfection.
The 5D4 clone for which a fluorescence-increasing effect of the scFv on the fluorophore-DNP pair was observed was expressed in HEK293T cells as a fusion protein with the fluorescent protein TagRFP, and the state of expression of the scFv in the cells or the propriety of fluorescent labeling of cytoplasm by the fluorophore-DNP pair was evaluated. […]

Molecule: CCN1/C(=C/C=C/C=C/C2=[N+](CCCCCC(=O)O)c3ccc(S(=O)(=O)O)cc3C2(C)C)C(C)(C)c2cc(S(=O)(=O)[O-])ccc21 [Cy5]
- quantum yield [1]: 0.2-0.4

Molecule: CN(CC(=O)NCCOCCOCCNc1ccc([N+](=O)[O-])cc1[N+](=O)[O-])C(=O)c1ccccc1-c1c2cc(Cl)c(=O)cc-2oc2cc(O)c(Cl)cc12 [DCF-DNP, 2-(2,7-dichloro-6-hydroxy-3-oxo-3H-xanthene-9-yl)-N-(2-((2-(2-(2-((2,4-dinitrophenyl)amino)ethoxy)ethoxy)ethyl)amino)-2-oxoethyl)-N-methylbenzamide]
- increase in fluorescence intensity (5D4): about 10 times

Molecule: O=C(NCCOCCOCCNc1ccc([N+](=O)[O-])cc1[N+](=O)[O-])c1ccc(C(=O)O)c(-c2c3cc(Cl)c(=O)cc-3oc3cc(O)c(Cl)cc23)c1 [Probe 6DCF-DNP, 2-(2,7-dichloro-6-hydroxy-3-oxo-3H-xanthene-9-yl)-4-((2-(2-(2-((2,4-dinitrophenyl)amino)ethoxy)ethoxy)ethyl)carbamoyl)benzoate]
- dissociation rate (V94A mutant; V94A mutant and 6DCF-DNP): 0.31 s⁻¹
- rate increase relative to the original rate (V94A mutant; V94A mutant and 6DCF-DNP vs original 5D4): 25 times
- dissociation rate constant (koff) for a fluorescence-OFF state (MBP-5D4): 0.014 s⁻¹
- dissociation rate (5D4 (Y96F); Y96F mutant): 1.1 s⁻¹
- dissociation rate made faster relative to original (5D4 (Y96F); Y96F mutant and 6DCF-DNP vs original 5D4): 100 times

Molecule: CC(=O)Oc1cc2c(cc1F)C1(OC(=O)c3ccc(C(=O)NCCOCCOCCNc4ccc([N+](=O)[O-])cc4[N+](=O)[O-])cc31)c1cc(F)c(OC(C)=O)cc1O2 [Probe 6OGdiac-DNP, 6-((2-(2-(2-((2,4-dinitrophenyl)amino)ethoxy)ethoxy)ethyl)carbamoyl)-2′,7′-difluoro-3-oxo-3H-spiro[isobenzofuran-1,9′-xanthene]-3′,6′-diyl diacetate]
- green fluorescence in cells [2]: confirmed only in the cytoplasm of TagRFP-positive HEK293T cells

Molecule: Cy5.5
- quantum yield [1]: 0.24
